The nature of data set [1]: Pharmacokinetic profiles in rats. It counts as in vivo. As to conditions: for clearance (CL) / AUC(0-t) / half-life / Vd: iv dosing, 1 mg/kg; for AUC(0-t) / half-life / Vd / bioavailability: rat, plasma; for Vd: read-out: Vss; for bioavailability: po, bioavailability (F). Here is the method: The LC/MS/MS system used in the analysis consists of an Agilent 1200 Series vacuum degasser, binary pump, well-plate autosampler, thermostatted column compartment, the Agilent G6430 Triple Quadrupole Mass Spectrometer with an electrosprayionization (ESI) source. Quantitative analysis was carried out using MRM mode. The parameters for MRM transitions are in the Table A.
An Agilent XDB-C18, 2.1×30 mm, 3.5 μM column was used for the analysis. 5 μL of the samples were injected. Analysis condition: The mobile phase was 0.1% formic acid in water (A) and 0.1% formic acid in methanol (B). The flow rate was 0.4 mL/min. And the gradient of Mobile phase was in the Table B.
Alternatively, an Agilent 6330 series LC/MS/MS spectrometer equipped with G1312A binary pumps, a G1367A autosampler and a G1314C UV detector were used in the analysis. An ESI source was used on the LC/MS/MS spectrometer. The analysis was done in positive ion mode as appropriate and the MRM transition for each analyte was optimized using standard solution. A Capcell MP-C18 100×4.6 mm I.D., […] column (Phenomenex, Torrance, Calif., USA) was used during the analysis. The mobile phase was 5 mM ammonia acetate, 0.1% MeOH in water (A): 5 mM ammonia acetate, 0.1% MeOH in acetonitrile (B) (70/30, v/v). The flow rate was 0.6 mL/min. Column was maintained at ambient temperature. 20 μL of the samples were injected.
The compounds disclosed herein are assessed in pharmacokinetic studies in mice, rats, dogs or monkeys. The compounds are administered as a water solution, 2% HPMC+1% TWEEN®80 in water solution, 5% DMSO+5% solutol in saline, 4% MC suspension or capsule. For the intravenous administration, the animals are generally given at 1 or 2 mg/kg dose. For the oral (p.o.) dosing, mice and rats are generally given 5 or 10 mg/kg dose, and dogs and monkeys are generally given 10 mg/kg dose. The blood samples (0.3 mL) are drawn at 0.25, 0.5, 1.0, 2.0, 3.0, 4.0, 6.0, 8.0, 12 and 24 h time points or 0.083, 0.25, 0.5, 1.0, 2.0, 4.0, 6.0, 8.0 and 24 h time points and centrifuged at 3,000 or 4000 rpm for 2 to 10 min. The plasma solutions are collected, and stored at −20° C. or −70° C. until analyzed by LC/MS/MS as described above.

Data set [2] can be described thus: Compound stability in human liver microsomes. In kind it is in vitro ADME. As to conditions: for half-life: pH 7.4, 0.5 mg protein/mL; for half-life / T1/2: NADPH, 37° C.; for CLint scaled: pH 7.4, in vivo CLint extrapolated; for T1/2: 0.5 mg protein/mL. Here is the method:
Human or rat liver microsomes incubations were conducted in duplicate in polypropylene tubes. The typical incubation mixtures consisted of human or rat liver microsomes (0.5 mg protein/mL), compounds of interest (5 μM) and NADPH (1.0 mM) in a total volume of 200 μL potassium phosphate buffer (PBS, 100 mM, pH 7.4). Compounds were dissolved in DMSO and diluted with PBS such that the final concentration of DMSO was 0.05%. The enzymatic reactions were commenced with the addition of protein after a 3-min preincubation and incubated in a water bath open to the air at 37° C. Reactions were terminated at various time points (0, 5, 10, 15, 30, 60 min) by adding equal volume of ice-cold acetonitrile. The samples were stored at −80° C. until LC/MS/MS assays.
The concentrations of compounds in the incubation mixtures of human or rat liver microsomes were determined by a LC/MS/MS method. The ranges of the linearity in the concentration range were determined for each tested compounds.
A parallel incubation was performed using denatured microsomes as the negative control, and reactions were terminated at various time points (0, 15, 60 min) after incubation at 37° C.
Dextromethorphan (70 μM) was selected as the positive control, and reactions were terminated at various time points (0, 5, 10, 15, 30, 60 min) after incubation at 37° C. Both positive and negative control samples were included in each assay to ensure the integrity of the microsomal incubation system.
Alternatively, the stability of some of the compounds disclosed herein in human (or rat) liver microsomes were also conducted in the following protocol. The incubations were conducted in duplicate in polypropylene tubes. The typical incubation mixtures consisted of liver microsomes (final concentration: 0.5 mg protein/mL), compounds (final concentration: 1.5 μM) in a total volume of 30 μL K-buffer (contain 1.0 mM EDTA, 100 mM, pH7.4). Compounds were dissolved in DMSO and diluted with K-buffer such that the final concentration of DMSO was 0.2%. The enzymatic reactions were commenced with the addition of 15 μL of NADPH (final concentration: 2 mM) after 10 min preincubation and incubated in a 37° C. incubator. Reactions were terminated at various time points (0, 15, 30, 60 min) by adding 135 μL acetonitrile (contain IS). Protein is removed by centrifugation with 4000 rpm, 10 min. Supernatant was collected for LCMS/MS analysis
In the above protocol, ketanserin (1 μM) was selected as the positive control, and reactions were terminated at various time points (0, 15, 30, 60 min) after incubation at 37° C. The positive control sample was included in each assay to ensure the integrity of the microsomal incubation system.
The concentrations of compounds in human or rat liver microsome incubations were plotted as a percentage of the relevant zero time point control for each reaction. The in vivo CLint were extrapolated (ref: Naritomi, Y.; Terashita, S.; Kimura, S.; Suzuki, A.; Kagayama, A.; and Sugiyama, Y.; Prediction of human hepatic clearance from in vivo animal experiments and in vitro metabolic studies with liver microsomes from animals and humans. Drug Metab. Dispos., 2001, 29: 1316-1324).

SMILES strings stand for the structures.

As usually defined, the AUC(0-t) is the area under the concentration-time curve up to a stated or last time point. As a reminder, the half-life is how long it takes for the measured level to halve. A low value points to fast loss. Broadly, the bioavailability is the share of a dose that reaches the circulation, judged against a reference dose that is usually intravenous. Read a low bioavailability as little systemic uptake. One may read the CLint scaled as the capacity of the preparation to metabolise the compound, expressed as a volume cleared per time. With `CC(=O)Nc1cc(Oc2ccc(NC(=O)c3c4n(n(-c5ccccc5)c3=O)CCC4)cc2)ccn1` [Ex. 3, N-(4-((2-acetamidopyridin-4-yl)oxy)phenyl)-2-oxo-1-phenyl-2,4,5,6-tetrahydro-1H-pyrrolo[1,2-b]pyrazole-3-carboxamide], in data set [1], the “clearance (CL)” value came out at 0.65 mL/min/kg, the AUC(0-t) turned out to be 26300 ng·h/mL, the half-life was 3.83 h and the Vd came out at 0.18 L/kg. Also, the bioavailability in data set [1] turned out to be 94.5%. Moreover, in data set [2], the half-life was 32.2 h and the intrinsic clearance (CLint scaled) is 0.9 mL/min/kg.

Turning to `O=C(Nc1ccc(Oc2ccnc(NC(=O)C3CC3)c2)cc1)c1c2n(n(-c3ccccc3)c1=O)CCOC2` [Ex. 19, N-(4-((2-(cyclopropanecarboxamido)pyridin-4-yl)oxy)phenyl)-2-oxo-1-phenyl-2,4,6,7-tetrahydro-1H-pyrazolo[5,1-c][1,4]oxazine-3-carboxamide], in data set [1], the “clearance (CL)” value was 0.3 mL/min/kg, the area under the curve AUC(0-t) amounted to 50100 ng·h/mL, the half-life is 7.09 h and the Vd is 0.15 L/kg. The compound also showed a bioavailability in data set [1] of 66.7%. Moreover, the T1/2 result in data set [2] is “∞”.

Turning to `O=C(Nc1ccc(Oc2ccnc(NC(=O)C3CC3)c2)cn1)c1c2n(n(-c3ccccc3)c1=O)CCC2` [Ex. 14, N-(5-((2-(cyclopropanecarboxamido)pyridin-4-yl)oxy)pyridin-2-yl)-2-oxo-1-phenyl-2,4,5,6-tetrahydro-1H-pyrrolo[1,2-b]pyrazole-3-carboxamide], in data set [1], the “clearance (CL)” value was found to be 1.27 mL/min/kg, the AUC(0-t) was 12900 ng·h/mL, the half-life is 5.01 h and the Vd was 0.359 L/kg. For the same compound, the bioavailability in data set [1] came to 87.9%. For the same compound, in data set [2], the half-life came out at 8.47 h and the CLint scaled was 3.42 mL/min/kg.

`O=C(Nc1ccc(Oc2ccnc(NC(=O)C3CC3)c2)cc1)c1c2n(n(-c3ccccc3)c1=O)CCC2` [Ex. 2, N-(4-((2-(cyclopropanecarboxamido)pyridin-4-yl)oxy)phenyl)-2-oxo-1-phenyl-2,4,5,6-tetrahydro-1H-pyrrolo[1,2-b]pyrazole-3-carboxamide]: in data set [1], the “clearance (CL)” value was 0.55 mL/min/kg, the AUC(0-t) worked out at 27200 ng·h/mL, the half-life is 7.71 h and the Vd is 0.313 L/kg. In data set [1], this compound returned a bioavailability of 68.1%. In data set [2], the half-life is 4.07 h and the CLint scaled is 7.13 mL/min/kg.

With `CC(=O)Nc1cc(Oc2ccc(NC(=O)c3c4n(n(-c5ccccc5)c3=O)CCOC4)nc2)ccn1` [Ex. 12, N-(5-((2-acetamidopyridin-4-yl)oxy)pyridin-2-yl)-2-oxo-1-phenyl-2,4,6,7-tetrahydro-1H-pyrazolo[5,1-c][1,4]oxazine-3-carboxamide], in data set [1], the “clearance (CL)” value is 0.333 mL/min/kg, the exposure AUC(0-t) was found to be 46700 ng·h/mL, the half-life was 6.68 h and the Vd was found to be 0.136 L/kg. The bioavailability in data set [1] was 72.1%. In data set [2], the T1/2 entry is “∞”.

The values above are taken from patent US20150299219A1, “BICYCLIC PYRAZOLONE COMPOUNDS AND METHODS OF USE” (Calitor Sciences, LLC, priority 2014, published 2015).
